Values after ≈ are worked out from the molar mass of the structure shown. Active and inactive are the calls of the source. The rule behind the calls is not given here. Residues, ends and D or L forms follow the SMILES beside them. *: point of attachment. Myristoyl = CCCCCCCCCCCCCC(=O)*; Lauroyl = CCCCCCCCCCCC(=O)*
Tests used:
Staphylococcus aureus [1] = assay: Antimicrobial activity against ciprofloxacin-resistant Staphylococcus aureus ATCC 25923 after 18 hrs by broth microdilution method; type: functional, organism-based
Staphylococcus aureus [2] = assay: Antimicrobial activity against Staphylococcus aureus ATCC 25923 after 18 hrs in presence of FeCl3 by broth microdilution method; type: functional
Cell membrane [3] = assay: Induction of membrane disruption in Staphylococcus aureus ATCC 25923 assessed as PI-positive cells at 4 times MIC measured after 2 hrs by propidium iodide staining based flow cytometry relative to control
Staphylococcus aureus [4] = assay: Potentiation of ciprofloxacin-induced antimicrobial activity against methicillin-resistant Staphylococcus aureus 75 assessed as change in ciprofloxacin MIC at 2 uM after 18 hrs by broth microdilution method relative to ciprofloxacin MIC; type: functional
Staphylococcus aureus [5] = assay: Induction of nucleic acid leakage in Staphylococcus aureus ATCC 25923 at 4 times MIC; type: functional
Staphylococcus aureus [6] = assay: Potentiation of ciprofloxacin-induced antimicrobial activity against Staphylococcus aureus ATCC 25923 at 0.5 times MIC after 15 passages by broth microdilution method; type: functional, organism-based
Staphylococcus aureus [7] = assay: Antimicrobial activity against Staphylococcus aureus ATCC 25923 after 18 hrs in presence of NaCl by broth microdilution method; type: functional
Cell membrane [8] = assay: Induction of membrane disruption in Staphylococcus aureus ATCC 25923 assessed as irregular atrophy at 2 to 4 times MIC measured after 2 to 4 hrs by SEM analysis; type: subcellular; settings: time 2-4 hrs
Staphylococcus aureus [9] = assay: Induction of reactive oxygen species generation in Staphylococcus aureus ATCC 25923 by […] dye based fluorescence assay; type: functional, organism-based
Lipopolysaccharide (LPS) = assay: Binding affinity to LPS (unknown origin) assessed as bacterial killing at 2 times MIC preincubated for 1 hr followed by Staphylococcus aureus ATCC 25923 addition and measured after 2 hrs by colony counting method; settings: time 3.0 hrs
Cell membrane [10] = assay: Induction of membrane disruption in Staphylococcus aureus ATCC 25923 assessed as appearance of rough membrane at 2 to 4 times MIC measured after 2 to 4 hrs by SEM analysis; type: subcellular; settings: time 2-4 hrs
Staphylococcus aureus [11] = assay: Potentiation of EtBr-induced antimicrobial activity against ciprofloxacin-resistant Staphylococcus aureus ATCC 25923 at 1 to 2 uM after 18 hrs by broth microdilution method; type: functional, organism-based; settings: dose 1-2 µM
Staphylococcus aureus [12] = assay: Antimicrobial activity against Staphylococcus aureus ATCC 25923 after 18 hrs in presence of MgCl2 by broth microdilution method; type: functional
[13] = test system: Staphylococcus epidermidis; assay: Antimicrobial activity against ciprofloxacin-resistant Staphylococcus epidermidis ATCC 12228 at 0.5 times MIC after 15 passages by broth microdilution method; type: functional, organism-based
[14] = test system: Staphylococcus epidermidis; assay: Antimicrobial activity against ciprofloxacin-resistant Staphylococcus epidermidis ATCC 12228 at 0.5 to 8 uM measured after 18 hrs in presence of ciprofloxacin by checkerboard assay; type: functional, organism-based; settings: dose 0.5-8 µM
Staphylococcus aureus [15] = assay: Antibiofilm activity against Staphylococcus aureus ATCC 25923 preformed biofilm assessed as reduction in preformed biofilm thickness after 24 hrs using LIVE/LEAD (SYTO-9/PI) staining by confocal laser scanning microscopy based 3D image analysis; type: functional, organism-based; settings: dose 32-64 µM
[16] = test system: Staphylococcus epidermidis; assay: Antimicrobial activity against Staphylococcus epidermidis ATCC 12228 at 0.5 times MIC after 15 passages by broth microdilution method; type: functional, organism-based
Staphylococcus aureus [17] = assay: Antimicrobial activity against Staphylococcus aureus ATCC 25923 after 18 hrs in presence of 10% serum by broth microdilution method; type: functional
Staphylococcus aureus [18] = assay: Antimicrobial activity against ciprofloxacin-resistant Staphylococcus aureus ATCC 25923 at 0.5 to 8 uM measured after 18 hrs in presence of EtBr by checkerboard assay; type: functional, organism-based; settings: dose 0.5-8 µM
Staphylococcus aureus [19] = assay: Antimicrobial activity against Staphylococcus aureus ATCC 25923 at 0.5 times MIC after 15 passages by broth microdilution method; type: functional, organism-based
Staphylococcus aureus [20] = assay: Potentiation of ciprofloxacin-induced antimicrobial activity against ciprofloxacin-resistant Staphylococcus aureus ATCC 25923 assessed as change in ciprofloxacin MIC at 4 uM after 18 hrs by broth microdilution method relative to ciprofloxacin MIC; type: functional
Staphylococcus aureus [21] = assay: Antimicrobial activity against Staphylococcus aureus ATCC 25923 after 18 hrs in presence of ZnCl2 by broth microdilution method; type: functional
Staphylococcus aureus [22] = assay: Antibiofilm activity against ciprofloxacin-resistant Staphylococcus aureus ATCC 25923 at 0.5 to 8 uM after 24 hrs in presence of ciprofloxacin by checkerboard assay; type: functional, organism-based; settings: dose 0.5-8 µM
[23] = test system: Staphylococcus epidermidis; assay: Potentiation of ciprofloxacin-induced antimicrobial activity against Staphylococcus epidermidis ATCC 12228 at 0.5 times MIC after 15 passages by broth microdilution method; type: functional, organism-based
Staphylococcus aureus [24] = assay: Antimicrobial activity against Staphylococcus aureus ATCC 25923 after 18 hrs in presence of polymyxin B by checkerboard assay; type: functional, organism-based
Staphylococcus aureus [25] = assay: Antimicrobial activity against methicillin-resistant Staphylococcus aureus 75 measured after 18 hrs in presence of polymyxin B by checkerboard assay; type: functional, organism-based
[26] = Binding affinity to LTA (unknown origin) assessed as bacterial killing at 2 times MIC preincubated for 1 hr followed by Staphylococcus aureus ATCC 25923 addition and measured after 2 hrs by colony counting method; settings: time 3.0 hrs
Staphylococcus aureus [27] = assay: Antibiofilm activity against Staphylococcus aureus ATCC 25923 at 0.5 to 8 uM after 24 hrs by crystal violet staining based assay; type: functional, organism-based; settings: dose 0.5-8 µM
[28] = test system: Staphylococcus epidermidis; assay: Potentiation of ciprofloxacin-induced antimicrobial activity against ciprofloxacin-resistant Staphylococcus epidermidis ATCC 12228 assessed as change in ciprofloxacin MIC at 4 uM after 18 hrs by broth microdilution method relative to ciprofloxacin MIC; type: functional
Staphylococcus aureus [29] = assay: Antimicrobial activity against ciprofloxacin-resistant Staphylococcus aureus ATCC 25923 at 0.5 times MIC after 15 passages by broth microdilution method; type: functional, organism-based
Staphylococcus aureus [30] = assay: Antibiofilm activity against Staphylococcus aureus ATCC 25923 preformed biofilm at 32 to 64 uM after 24 hrs by LIVE/DEAD (SYTO-9/PI) staining based confocal laser scanning microscopic analysis; type: functional, organism-based; settings: dose 32-64 µM
Staphylococcus aureus [31] = assay: Antibiofilm activity against Staphylococcus aureus ATCC 25923 assessed as reduction in biofilm thickness after 24 hrs using LIVE/LEAD (SYTO-9/PI) staining by confocal laser scanning microscopy based 3D image analysis; type: functional, organism-based; settings: dose 4-8 µM
[32] = test system: Staphylococcus epidermidis; assay: Potentiation of ciprofloxacin-induced antimicrobial activity against ciprofloxacin-resistant Staphylococcus epidermidis ATCC 12228 at 1 uM after 18 hrs by broth microdilution method; type: functional, organism-based
Staphylococcus aureus [33] = assay: Antimicrobial activity against Staphylococcus aureus ATCC 25923 after 18 hrs in presence of CaCl2 by broth microdilution method; type: functional
Staphylococcus aureus [34] = assay: Antimicrobial activity against Staphylococcus aureus ATCC 25923 after 18 hrs in presence of 2.5% serum by broth microdilution method; type: functional
Staphylococcus aureus [35] = assay: Ratio of MIC for antimicrobial activity against Staphylococcus aureus ATCC 25923 in presence of 5% serum to MIC for antimicrobial activity against Staphylococcus aureus ATCC 25923 in absence of serum; type: functional
Staphylococcus aureus [36] = assay: Antimicrobial activity against methicillin-resistant Staphylococcus aureus 75 after 18 hrs by broth microdilution method; type: functional
Staphylococcus aureus [37] = assay: Antibiofilm activity against Staphylococcus aureus ATCC 25923 preformed biofilm assessed as preformed biofilm thickness at 32 uM after 24 hrs using LIVE/LEAD (SYTO-9/PI) staining by confocal laser scanning microscopy based 3D image analysis (reference value: 56 micrometer); type: functional

SMILES | Activity (Staphylococcus aureus [1]) | MIC (Staphylococcus aureus [2]) | Activity (Cell membrane [3]) | fold change (FC) (Staphylococcus aureus [4]) | Activity (Staphylococcus aureus [5]) | Activity (Staphylococcus aureus [6]) | MIC (Staphylococcus aureus [7]) | Activity (Cell membrane [8]) | Activity (Staphylococcus aureus [9]) | Activity (Lipopolysaccharide (LPS)) | Activity (Cell membrane [10]) | Activity (Staphylococcus aureus [11]) | MIC (Staphylococcus aureus [12]) | Activity [13] | Activity [14] | Activity (Staphylococcus aureus [15]) | Activity [16] | MIC (Staphylococcus aureus [17]) | Activity (Staphylococcus aureus [18]) | Activity (Staphylococcus aureus [19]) | further results
CCCCCCCCCCCC(=O)N[C@@H](CCCNC(=N)N)C(=O)N[C@@H](CCCNC(=N)N)C(=O)N[C@@H](Cc1c[nH]c2ccccc12)C(N)=O (Lauroyl-Arg-Arg-Trp-NH2) | Active | 4 µM | Active | 2 | inactive | Active | 16 µM | Active | Active | Active | Active | Active | 8 µM | Active | Active | Dose-dependent effect | Active | 64 µM | Active | Active | fold change (FC) (Staphylococcus aureus [20]): 2; MIC (Staphylococcus aureus [21]): 8 µM; Activity (Staphylococcus aureus [22]): Active; Activity [23]: Active; Activity (Staphylococcus aureus [24]): Active; Activity (Staphylococcus aureus [25]): Active; Activity [26]: Active; Activity (Staphylococcus aureus [27]): Active; fold change (FC) [28]: 2; Activity (Staphylococcus aureus [29]): Active; Activity (Staphylococcus aureus [30]): Active; Activity (Staphylococcus aureus [31]): Dose-dependent effect; Activity [32]: inactive; MIC (Staphylococcus aureus [33]): 16 µM; MIC (Staphylococcus aureus [34]): 32 µM; Ratio (Staphylococcus aureus [35]): 8; MIC (Staphylococcus aureus [36]): 4 µM (≈ 2.79 µg/mL); Activity (Staphylococcus aureus [37]): 30 um
CCCCCCCCCCCCCC(=O)N[C@@H](CCCNC(=N)N)C(=O)N[C@@H](Cc1c[nH]c2ccccc12)C(=O)N[C@@H](Cc1c[nH]c2ccccc12)C(N)=O (Myristoyl-Arg-Trp-Trp-NH2) | Active | 8 µM | 88.9% | 2 | inactive | Active | 8 µM | Active | Active | Active | Active | Active | 4 µM | Active | Active | Dose-dependent effect | Active | 16 µM | Active | Active | fold change (FC) (Staphylococcus aureus [20]): 2; MIC (Staphylococcus aureus [21]): 8 µM; Activity (Staphylococcus aureus [22]): Active; Activity [23]: Active; Activity (Staphylococcus aureus [24]): Active; Activity (Staphylococcus aureus [25]): Active; Activity [26]: Active; Activity (Staphylococcus aureus [27]): Active; fold change (FC) [28]: 2; Activity (Staphylococcus aureus [29]): Active; Activity (Staphylococcus aureus [30]): Active; Activity (Staphylococcus aureus [31]): Dose-dependent effect; Activity [32]: inactive; MIC (Staphylococcus aureus [33]): 8 µM; MIC (Staphylococcus aureus [34]): 8 µM; Ratio (Staphylococcus aureus [35]): 2; MIC (Staphylococcus aureus [36]): 4 µM (≈ 3.02 µg/mL); Activity (Staphylococcus aureus [37]): 40 um
